20 molecules from patent publication US10125134B2 (Mirati Therapeutics, Inc., priority 2016, dated 2018) can be followed below.

Where two headings read alike, the source gives them in different places. A value given as a limit tells only on which side of the number the result lay.

Assay [1] concerns NCI-H358 cells (express KRas G12C), Phospho-ERK. Kind of assay: Cellular inhibition of KRas G12C: Phospho-ERK in NCI-H358 cells. In kind it is cell-based. The settings on record: pERK(Thr202/Tyr204) normalized with GAPDH, NCI-H358 cells, 3 hours, read-out: IC50. The gist of the method: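 IC50 derived by 4-parameter fit of GAPDH-normalized pERK(Thr202/Tyr204) signal, as percent of DMSO control. Signal came from in-cell immunodetection with infrared secondaries after 3 h compound exposure of KRas G12C NCI-H358 cells at 0.5% DMSO.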

In another assay the target is KRas G12C (Homo sapiens, UniProt P01116, C118S/C51S/C80L/G12C). Kind of assay: KRas G12C Modification Assay (LCMS detection of covalent adduct). In kind it is binding. The settings on record: normalized percent of control; tested at 5 μM concentration for 3 hours. The method in brief: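 Cys-light KRas G12C mutant protein incubated with compound in K-Ras assay buffer, reactions quenched at set time points with 25 mM acetic acid and analysed by intact-protein LC/MS on a C-3 column. Deconvoluted mass heights expressed as percent of control (POC) relative to compound-free protein.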

As usually defined, the IC50 is the concentration that gives 50% inhibition.

Consider `C=CC(=O)N1CCN(c2nc(OC[C@H]3CCCN3C)nc3c2CCN(c2ccccc2C(F)(F)F)C3)CC1CC#N` (stereo partly drawn) [Example 299, 2-[4-[2-[[(2R)-1-methylpyrrolidin-2-yl]methoxy]-7-[2-(trifluoromethyl)phenyl]-6,8-dihydro-5H-pyrido[3,4-d]pyrimidin-4-yl]-1-prop-2-enoyl-piperazin-2-yl]acetonitrile], for which, in assay [1], the IC50 is 0.0001 to 1 µM. Besides, the POC result on KRas G12C is listed as “C (“C”>50% POC)”.
The matching figures for `C=CC(=O)N1CCN(c2nc(OCCN(CC)CC)nc3c2CCN(c2ccccc2C(F)(F)F)C3)CC1CC#N` (stereo not shown) [Example 300, 2-[4-[2-[2-(diethylamino)ethoxy]-7-[2-(trifluoromethyl)phenyl]-6,8-dihydro-5H-pyrido[3,4-d]pyrimidin-4-yl]-1-prop-2-enoyl-piperazin-2-yl]acetonitrile]: 0.0001 to 1 µM and “C (“C”>50% POC)”.
Consider `C=CC(=O)N1CCN(c2nc(OC[C@@H]3CCC(C)(C)N3C)nc3c2CCN(c2cccc4ccccc24)C3)CC1CC#N` (stereo partly drawn) [Example 301, 2-[4-[7-(1-naphthyl)-2-[[(2S)-1,5,5-trimethylpyrrolidin-2-yl]methoxy]-6,8-dihydro-5H-pyrido[3,4-d]pyrimidin-4-yl]-1-prop-2-enoyl-piperazin-2-yl]acetonitrile], for which the concentration for half-maximal inhibition (IC50) in assay [1] (Homo sapiens, NCI-H358, 3 h) fell in the range of 0.0001 to 1 µM. Further, the POC result at KRas G12C is “C (“C”>50% POC)”.
As to `C=CC(=O)N1CCN(c2nc(OC[C@@H]3CCCN3C)nc3c2CCN(c2cccc4ccc(F)cc24)C3)CC1CC#N` (stereo partly shown) [Example 302], the IC50 in assay [1] (Homo sapiens, NCI-H358, 3 h) was 0.0001 to 1 µM. On KRas G12C, the POC result is reported as “C (“C”>50% POC)”.
Take `C=CC(=O)N1CCN(c2nc(OCCN3CCCCC3)nc3c2CCN(c2cccc4ccccc24)C3)CC1CC#N` (stereo not shown) [Example 303, 2-[4-[7-(1-naphthyl)-2-[2-(1-piperidyl)ethoxy]-6,8-dihydro-5H-pyrido[3,4-d]pyrimidin-4-yl]-1-prop-2-enoyl-piperazin-2-yl]acetonitrile]: the IC50 in assay [1] (Homo sapiens, NCI-H358, 3 h) was 0.0001 to 1 µM. Besides, at KRas G12C, the POC result was “C (“C”>50% POC)”.
The matching figures for `C=CC(=O)N1CCN(c2nc(OC[C@H]3CCCN3CCO)nc3c2CCN(c2cccc4ccccc24)C3)CC1CC#N` (stereo partly drawn) [Example 304, 2-[4-[2-[[(2R)-1-(2-hydroxyethyl)pyrrolidin-2-yl]methoxy]-7-(1-naphthyl)-6,8-dihydro-5H-pyrido[3,4-d]pyrimidin-4-yl]-1-prop-2-enoyl-piperazin-2-yl]acetonitrile]: 0.0001 to 1 µM and “C (“C”>50% POC)”.
As for `C=CC(=O)N1CCN(c2nc(OC[C@@H]3CCCN3C)nc3c2CCN(c2cnccc2C#N)C3)C[C@@H]1CC#N` [Example 305, 3-(4-((S)-4-acryloyl-3-(cyanomethyl)piperazin-1-yl)-2-(((S)-1-methylpyrrolidin-2-yl)methoxy)-5,6-dihydropyrido[3,4-d]pyrimidin-7(81)-yl)isonicotinonitrile], in assay [1] (Homo sapiens, NCI-H358, 3 h), the IC50 is greater than 1 µM. Moreover, on KRas G12C, the POC result is listed as “C (“C”>50% POC)”.
For `C=CC(=O)N1CCN(c2nc(OC[C@@H]3C[C@@H](F)CN3C)nc3c2CCN(c2cccc4ccccc24)C3)C[C@@H]1CC#N` [Example 306, 2-[(2S)-4-[2-[[(2S,4R)-4-fluoro-1-methyl-pyrrolidin-2-yl]methoxy]-7-(1-naphthyl)-6,8-dihydro-5H-pyrido[3,4-d]pyrimidin-4-yl]-1-prop-2-enoyl-piperazin-2-yl]acetonitrile] the same measures were 0.0001 to 1 µM and “C (“C”>50% POC)”.
The matching figures for `C=CC(=O)N1CCN(c2nc(OC[C@@H]3CCCN3C)nc3c2CCN(c2cccc(OC)c2F)C3)CC1CC#N` (stereo partly drawn) [Example 307, 2-[4-[7-(2-fluoro-3-methoxy-phenyl)-2-[[(2S)-1-methylpyrrolidin-2-yl]methoxy]-6,8-dihydro-5H-pyrido[3,4-d]pyrimidin-4-yl]-1-prop-2-enoyl-piperazin-2-yl]acetonitrile]: greater than 1 µM and “C (“C”>50% POC)”.
The matching figures for `C=CC(=O)N1CCN(c2nc(OC[C@@H]3CCCN3C)nc3c2CCN(c2cccc(F)c2OC)C3)CC1CC#N` (stereo partly drawn) [Example 308, 2-[4-[7-(3-fluoro-2-methoxy-phenyl)-2-[[(2S)-1-methylpyrrolidin-2-yl]methoxy]-6,8-dihydro-5H-pyrido[3,4-d]pyrimidin-4-yl]-1-prop-2-enoyl-piperazin-2-yl]acetonitrile]: 0.0001 to 1 µM and “C (“C”>50% POC)”.
Take `C=CC(=O)N1CCN(c2nc(OC[C@@H]3CCCN3C)nc3c2CCN(c2cccc4cccc(C)c24)C3)CC1CC#N` (stereo partly drawn) [Example 309, 2-(1-acryloyl-4-(7-(8-methylnaphthalen-1-yl)-2-(((S)-1-methylpyrrolidin-2-yl)methoxy)-5,6,7,8-tetrahydropyrido[3,4-d]pyrimidin-4-yl)piperazin-2-yl)acetonitrile]: the IC50 in assay [1] (Homo sapiens, NCI-H358, 3 h) fell in the range of 0.0001 to 1 µM. On KRas G12C, the POC result is reported as “C (“C”>50% POC)”.
The matching figures for `C=CC(=O)N1CCN(c2nc(OC[C@@H]3CCCN3C)nc3c2CCN(c2c(F)ccc4ccccc24)C3)CC1CC#N` (stereo partly drawn) [Example 311, 2-(1-acryloyl-4-(7-(2-fluoronaphthalen-1-yl)-2-(((S)-1-methylpyrrolidin-2-yl)methoxy)-5,6,7,8-tetrahydropyrido[3,4-d]pyrimidin-4-yl)piperazin-2-yl)acetonitrile]: 0.0001 to 1 µM and “C (“C”>50% POC)”.
For `C=CC(=O)N1CCN(c2nc(OC[C@@H]3C[C@@H](O)CN3C)nc3c2CCN(c2ccccc2C(F)(F)F)C3)CC1CC#N` (stereo partly drawn) [Example 312, 2-[4-[2-[[(2S,4R)-4-hydroxy-1-methyl-pyrrolidin-2-yl]methoxy]-7-[2-(trifluoromethyl)phenyl]-6,8-dihydro-5H-pyrido[3,4-d]pyrimidin-4-yl]-1-prop-2-enoyl-piperazin-2-yl]acetonitrile] the same measures were 0.0001 to 1 µM and “C (“C”>50% POC)”.
Consider `C=CC(=O)N1CCN(c2nc(OC[C@@H]3CCN(C)C3)nc3c2CCN(c2c(C(F)(F)F)ccc4[nH]ncc24)C3)CC1CC#N` (stereo partly drawn) [Example 313, 2-[4-[2-[[(3R)-1-methylpyrrolidin-3-yl]methoxy]-7-[5-(trifluoromethyl)-1H-indazol-4-yl]-6,8-dihydro-5H-pyrido[3,4-d]pyrimidin-4-yl]-1-prop-2-enoyl-piperazin-2-yl]acetonitrile], for which the IC50 in assay [1] (Homo sapiens) fell in the range of 0.0001 to 1 µM. Also, the POC result at KRas G12C is “C (“C”>50% POC)”.
`C=CC(=O)N1CCN(c2nc(OC[C@@H]3CCCN3C)nc3c2CCN(c2cc(OC)cc4ccccc24)C3)C[C@@H]1CC#N` [Example 314, 2-[(2S)-4-[7-(3-methoxy-1-naphthyl)-2-[[(2S)-1-methylpyrrolidin-2-yl]methoxy]-6,8-dihydro-5H-pyrido[3,4-d]pyrimidin-4-yl]-1-prop-2-enoyl-piperazin-2-yl]acetonitrile]: in assay [1] (Homo sapiens, NCI-H358, 3 h), the IC50 was in the range of 0.0001 to 1 µM. Moreover, the POC entry at KRas G12C is on record as “C (“C”>50% POC)”.
Turning to `C=CC(=O)N1CCN(c2nc(OC[C@@H]3C[C@@H](O)CN3C)nc3c2CCN(c2cccc4ccccc24)C3)C[C@@H]1CC#N` [Example 315, 2-[(2S)-4-[2-[[(2S,4R)-4-hydroxy-1-methyl-pyrrolidin-2-yl]methoxy]-7-(1-naphthyl)-6,8-dihydro-5H-pyrido[3,4-d]pyrimidin-4-yl]-1-prop-2-enoyl-piperazin-2-yl]acetonitrile], the IC50 in assay [1] (Homo sapiens, NCI-H358, 3 h) lay within 0.0001 to 1 µM. Moreover, at KRas G12C, the POC entry is on record as “C (“C”>50% POC)”.
The matching figures for `C=CC(=O)N1CCN(c2nc(OC[C@@H]3CCCN3C)nc3c2CCN(c2ccc(F)c4ccccc24)C3)C[C@@H]1CC#N` [Example 316, 2-((S)-1-acryloyl-4-(7-(4-fluoronaphthalen-1-yl)-2-(((S)-1-methylpyrrolidin-2-yl)methoxy)-5,6,7,8-tetrahydropyrido[3,4-d]pyrimidin-4-yl)piperazin-2-yl)acetonitrile]: 0.0001 to 1 µM and “C (“C”>50% POC)”.
With `C=CC(=O)N1CCN(c2nc(OC[C@@H]3CCCN3C)nc3c2CCN(c2cc(O)cc4ccccc24)C3)C[C@@H]1CC#N` [Example 317, 2-((S)-1-acryloyl-4-(7-(3-hydroxynaphthalen-1-yl)-2-(((S)-1-methylpyrrolidin-2-yl)methoxy)-5,6,7,8-tetrahydropyrido[3,4-d]pyrimidin-4-yl)piperazin-2-yl)acetonitrile], the IC50 in assay [1] (Homo sapiens, NCI-H358, 3 h) lay in the range of 0.0001 to 1 µM. The POC entry at KRas G12C was “C (“C”>50% POC)”.
For `C=CC(=O)N1CCN(c2nc(OC[C@H]3CCCN3C)nc3c2CCN(c2ccc(F)c4ccccc24)C3)C[C@@H]1CC#N` [Example 318, 2-[(2S)-4-[7-(4-fluoro-1-naphthyl)-2-[[(2R)-1-methylpyrrolidin-2-yl]methoxy]-6,8-dihydro-5H-pyrido[3,4-d]pyrimidin-4-yl]-1-prop-2-enoyl-piperazin-2-yl]acetonitrile] the same measures were 0.0001 to 1 µM and “C (“C”>50% POC)”.
For `C=CC(=O)N1CCN(c2nc(OC[C@H]3CCCN3C)nc3c2CCN(c2cccc(Cl)c2C(F)(F)F)C3)C[C@@H]1CC#N` [Example 319, 2-((S)-1-acryloyl-4-(7-(3-chloro-2-(trifluoromethyl)phenyl)-2-(((R)-1-methylpyrrolidin-2-yl)methoxy)-5,6,7,8-tetrahydropyrido[3,4-d]pyrimidin-4-yl)piperazin-2-yl)acetonitrile] the same measures were 0.0001 to 1 µM and “C (“C”>50% POC)”.
